Patent publication US20030198617A1, “Pharmaceutical tryptophan containing dipeptide compositions and methods of use thereof” (priority 1993, published 2003)
Like-named read-outs stand apart in the source and are kept apart here. Marks after values point to notes of the source that are not given here.

Tests used:
[1] = Radiation immunodeficiency correction two months after irradiation (Chernobyl), blood parameters; format: in vivo, human; settings: after IM862 therapy
Experimental: These patients were treated for 2 months immediately succeeding exposure to radiation caused from the Chernobyl nuclear accident. As a control, about 19 people exposed to radiation were tested for various blood parameters to establish a baseline.

[2] = Immune status in early terms after irradiation; format: in vivo, human; settings: after IM862 therapy
Experimental: The patients described in Example 42 were tested for blood parameters the first few days after exposure to the radiation of the Chernobyl accident. It could be seen from Table 3 below that response to the treatment was observed even after a few weeks of treatment.

[3] = Cancer patients after radiation and chemo-therapy; format: in vivo, human; settings: IM862 100 μg daily 10 days, 246 patients
From the text: If it vas determined necessary based on immunological indices, the treatment regimen was repeated in 4-6 months.

[4] = Spontaneous tumorigenesis, experimental models; format: in vivo; settings: IM862 prophylactically
[5] = Immune system of guinea pigs after radiation exposure (thymus, lymph node, spleen, blood); format: in vivo
From the text: Seventy-two of the animals were irradiated with total radiation dose was 1 Gr. […] The selected doses were optimal in stimulating an immune response to ram erythrocytes. Control irradiated and non-irradiated animals (24 guinea pigs to each group) were given saline solution per an analogous schedule. At 5, 10, and 20 days after irradiation the animals were destroyed (8 guinea pigs from each group). The thymus, spleen, and lymph nodes of each animal were extracted and their weight coefficients computed. The number of karyocytes, T-, B-, and O-lymphocytes in each organ was determined. Also, the functional activity of blood lymphocytes in the leukocyte migration inhibition reaction to Con A was assessed and the content of cation proteins in the neutrophils was determined.

Candida albicans = Candida albicans intraperitoneal infection in guinea pigs; format: in vivo
From the text: Two groups of guinea pigs were inoculated with Candida albicans by intraperitoneal injection. […] The other group was not treated.
Animals were sacrificed at day 5 and day 10. The peritoneal cavities were examined for signs of inflammation. These signs included number of infectious foci adherent to the omentum, exudate, fibrin deposition, quantitative fungal cultures, and the number of neutrophils, macrophages, and lymphocytes infiltrating the peritoneum.

[6] = Psoriasis study (Example 108); format: in vivo, human; settings: during treatment
Experimental: A comparative study of immunological, coagulation, and acute phase protein parameters was conducted on 30 patients with disseminated forms of psoriasis on normal treatment. Twenty-seven patients had widespread lesions of the smooth skin and scalp; two had psoriatic erythroderma. The period of illness in the majority of those examined exceeded 5 years. In two persons the nail plates were involved in the form of a “thimble” symptom.
Patients were treated under identical conditions and received therapy of vitamins B12, B6, and A, folic acid, pyrogens, sedatives, and desensitizing preparations. Salidol ointment and 3-5% sulfur-salicylic ointments were used locally.
Basic immunological and coagulation assays were conducted on all patients. The findings obtained were compared with the results of investigations done on healthy people between the ages of 18-40 years. […] At the same time, a drop is noted in the quantity of T-lymphocytes, a decrease in the level of T-helpers and suppressors, and a growth in the concentrations of IgA, M, and to a lesser degree, IgG.

[7] = test system: methicillin-resistant Staphylococcal aureus
Experimental: Animals were inoculated intraperitoneally with 10×LD of Staphylococcal aureus suspended in brain-heart infusion broth containing 5 percent mucin. The antibiotic was administered s.c., i.p., or p.o., one hour following bacterial inoculation and deaths occurring during the subsequent three days are recorded.
Two control experiments were conducted. […] The number of survivors at 72 hours was determined. […] The number of survivors at 72 hours was again recorded.
Test mice were divided into 3 groups.

[8] = 20 days after irradiation, IM862 0.01 mg/kg daily for 5 days
[9] = Group 2: IM862 0.01 mg/kg 3 days before inoculation, ampicillin control (0), 5 test animals, 72 hours
[10] = Group 3: IM862 0.01 mg/kg 3 days + ampicillin 100 mg/kg 1 hr, 5 test animals, 72 hours
[11] = Group 4: IM862 0.01 mg/kg 3 days + ampicillin 10 mg/kg 1 hr, 5 test animals, 72 hours
[12] = Group 5: IM862 0.01 mg/kg 3 days + ampicillin 1 mg/kg 1 hr, 5 test animals, 72 hours
[13] = Group 6: IM862 0.001 mg/kg 3 days + ampicillin 100 mg/kg 1 hr, 5 test animals, 72 hours
[14] = Group 7: IM862 0.001 mg/kg 3 days + ampicillin 10 mg/kg 1 hr, 5 test animals, 72 hours
[15] = Group 8: IM862 0.001 mg/kg 3 days + ampicillin 1 mg/kg 1 hr, 5 test animals, 72 hours

Glu-Trp [IM862]
CD2, % [1]: 48.7 ± 1.8 %
CD2, abs [1]: 1.13 ± 0.08** 10^9/l
CD2-DR+, % [1]: 30.0 ± 1.2 %
CD2-DR+, abs [1]: 0.55 ± 0.06* 10^9/l
CD19, % [1]: 27 ± 4%
CD19, abs [1]: 0.51 ± 0.10** 10^9/l
E-RFC, % [1]: 27.4 ± 2.4 %
IgA [1]: 1.49 ± 0.19 g/L
IgG [1]: 10.0 ± 1.0 g/L
IgM [1]: 1.00 ± 0.10 g/L
LMI with ConA, % [1]: 90 ± 10 %
Leukocytes, abs [1]: 5.0 ± 1.2** 10^9/l
Lymphocytes, 2abs [1]: 1.9 ± 0.4* 10^9/l
C3 [2]: 0.68 ± 0.04 g/L
CD2, % [2]: 50.9 ± 2.4%
CD2, abs [2]: 1.13 ± 0.07** 10^9/l
CD2-DR+, % [2]: 31 ± 3 %
CD2-DR+, abs [2]: 0.69 ± 0.08** 10^9/l
CD19, % [2]: 30.5 ± 1.9 %
CD19, abs [2]: 0.68 ± 0.04** 10^9/l
E-RFC, % [2]: 23.4 ± 2.6%
IgA [2]: 1.11 ± 0.09 g/L
IgG [2]: 9.2 ± 0.7 g/L
IgM [2]: 0.58 ± 0.10 g/L
LMI with ConA, % [2]: 60 ± 7 %
Leukocytes, abs [2]: 6.4 ± 0.8** 10^9/l
Lymphocytes, abs [2]: 2.27 ± 0.16** 10^9/l
clinical effect [3]: normalization of immunological indices
spontaneous tumorigenesis [4]: diminished frequency of spontaneous tumorigenesis
cation protein count in the blood neutrophils ([5]; 10 and 20 days after irradiation): normalized at 10 and 20 days after irradiation
Lymph Node: B-lymphocytes % [5, 8]: 3.5 ± 0.6^x %
Lymph Node: B-lymphocytes ×10^3/mg [5, 8]: 9.2 ± 0.9^x ×10^3/mg
Lymph Node: Lymphocytes ×10^3/mg [5, 8]: 242.5 ± 31.3^xx ×10^3/mg
Lymph Node: O-lymphocytes % [5, 8]: 84.4 ± 12.3%
Lymph Node: O-lymphocytes ×10^3/mg [5, 8]: 204.6 ± 33.4^xx ×10^3/mg
Lymph Node: T-lymphocytes % [5, 8]: 12.3 ± 0.9%
Lymph Node: T-lymphocytes ×10^3/mg [5, 8]: 29.9 ± 2.2^xx ×10^3/mg
Lymph Node: Weight coefficient [5, 8]: 0.31 ± 0.03 g/kg
Lymph Node: “Active” T-lymphocytes % [5, 8]: 10.3 ± 1.4%
Lymph Node: “Active” T-lymphocytes ×10^3/mg [5, 8]: 24.9 ± 3.7^xx ×10^3/mg
Splenic: B-lymphocytes % [5, 8]: 27.1 ± 2.6%
Splenic: B-lymphocytes ×10^3/mg [5, 8]: 81.6 ± 9.3 ×10^3/mg
Splenic: Lymphocytes ×10^3/mg [5, 8]: 260.4 ± 32.3^xx ×10^3/mg
Splenic: O-lymphocytes % [5, 8]: 57.4 ± 6.7%
Splenic: O-lymphocytes ×10^3/mg [5, 8]: 149.4 ± 15.9^x ×10^3/mg
Splenic: T-lymphocytes % [5, 8]: 17.4 ± 1.2%
Splenic: T-lymphocytes ×10^3/mg [5, 8]: 45.4 ± 4.1^xx ×10^3/mg
Splenic: Weight coefficient [5, 8]: 1.26 ± 0.9 g/kg
Splenic: “Active” T-lymphocytes % [5, 8]: 11.1 ± 2.0%
Splenic: “Active” T-lymphocytes ×10^3/mg [5, 8]: 28.9 ± 3.9^xx ×10^3/mg
Thymic: B-lymphocytes % [5, 8]: 0.9 ± 0.08^xx %
Thymic: B-lymphocytes ×10^3/mg [5, 8]: 3.7 ± 0.4 ×10^3/mg
Thymic: Lymphocytes ×10^3/mg [5, 8]: 423.3 ± 40.4^xx ×10^3/mg
Thymic: O-lymphocytes % [5, 8]: 17.9 ± 0.8%
Thymic: O-lymphocytes ×10^3/mg [5, 8]: 75.4 ± 8.6^xx ×10^3/mg
Thymic: T-lymphocytes % [5, 8]: 81.3 ± 9.3%
Thymic: T-lymphocytes ×10^3/mg [5, 8]: 342.8 ± 30.4^xx ×10^3/mg
Thymic: Weight coefficient g/kg [5, 8]: 0.81 ± 0.8^xx g/kg
Thymic: “Active” T-lymphocytes % [5, 8]: 57.6 ± 6.2^xx %
Thymic: “Active” T-lymphocytes ×10^3/mg [5, 8]: 242.6 ± 26.8^xx ×10^3/mg
percent of leukocyte migration (blood lymphocytes, Con A) ([5]; irradiated guinea pigs, 5 and 20 days after irradiation): normalized this index by 20 days after radiation exposure
inflammatory changes in the omentum (Candida albicans; after 5 days): did not principally differ between the groups
quantitative fungal cultures (Candida albicans; after 10 days): fewer fungi in the treated animals
inflammatory changes in the omentum (Candida albicans; after 10 days, 1 μg/kg per day i.p. for four days): less pronounced than in untreated animals
clinical status and immunological parameters [6]: improvement in clinical status and normalization of immunological parameters
Survivors ([7]; 0.01 mg/kg IM862 3 days prior to bacterial inoculum, no antibiotic): Four of 5 animals survived
Percent ip Survivors [7, 9]: 80%
Survivors [7, 9]: 4
Percent ip Survivors [7, 10]: 100%
Survivors [7, 10]: 5
Percent ip Survivors [7, 11]: 100%
Survivors [7, 11]: 5
Percent ip Survivors [7, 12]: 100%
Survivors [7, 12]: 5
Percent ip Survivors [7, 13]: 100%
Survivors [7, 13]: 5
Percent ip Survivors [7, 14]: 100%
Survivors [7, 14]: 5
Percent ip Survivors [7, 15]: 100%
Survivors [7, 15]: 5
